The values below come from ChEMBL document CHEMBL1201862, “PubChem BioAssay data set” (2004).

Test systems include 786-0; COLO 205; EKVX; HOP-62; HT-29; K562; M14; MDA-MB-231; MOLT-4; NCI-H23; NCI-H522; OVCAR-8; RPMI-8226; RXF 393; SF-295; SK-MEL-28; SW-620; UO-31; SN12C; CCRF-CEM.
Holding throughout (test): NCI tumour cell line growth inhibition, 48 h

Each structure is given as a SMILES string.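 Following 48 hours of exposure in 96-well plates, responses at five concentrations were used to interpolate endpoints linearly. GI50 = concentration required for 50% inhibition of growth.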 Activity calls are given as the source filed them. Cut-off read from the data, not from the text of the source: active = GI50 up to about 1.1 µM and inactive = higher.

As to `C[C@@H]1CCC2C(C)(C)C(/C=C\C=O)C3(C)OC213` (some centres not stated), the GI50 is 28.8 µM (inactive) in the assay on 786-0; 25.4 µM (inactive) with COLO 205; 37.8 µM (inactive) in the assay with EKVX; 38.9 µM (inactive) in the assay with HOP-62; 26.4 µM (inactive) with HT-29; 33.6 µM (inactive) in the assay on K562. Moreover, the GI50 was 65.2 µM (inactive) in the assay with M14; 49.2 µM (inactive) in the assay on MDA-MB-231; 31.8 µM (inactive) in the assay on MOLT-4; 35.6 µM (inactive) with NCI-H23; 46 µM (inactive) in the assay on NCI-H522; 20.2 µM (inactive) in the assay with OVCAR-8. Moreover, the GI50 with RPMI-8226 is 28.7 µM (inactive); in the assay on RXF 393 it was 33.3 µM (inactive); in the assay on SF-295 it was 35.1 µM (inactive); in the assay with SK-MEL-28, 44 µM (inactive); with SW-620, 40.9 µM (inactive); in the assay with UO-31, 52.5 µM (inactive).

For `Cn1ccnc1Oc1ccc(Cl)cc1`, the GI50 with 786-0 was 11.5 µM (inactive); with COLO 205 it was 13 µM (inactive); in the assay on EKVX, 19.8 µM (inactive); with HOP-62, 26.2 µM (inactive); in the assay with HT-29 it was 13.7 µM (inactive); with K562, 13.7 µM (inactive). The GI50 with M14 was 13.7 µM (inactive); with MDA-MB-231 it was 14.8 µM (inactive); with MOLT-4 it was 2.38 µM (inactive); with NCI-H23 it was 17.5 µM (inactive); in the assay with NCI-H522, 2.28 µM (inactive); with OVCAR-8, 7.69 µM (inactive). In addition, the GI50 was 0.49 µM (active) in the assay on RPMI-8226; 16.9 µM (inactive) with RXF 393; 14.4 µM (inactive) in the assay on SK-MEL-28; 13.6 µM (inactive) in the assay with SN12C; 13 µM (inactive) in the assay with SW-620; 11.7 µM (inactive) in the assay on UO-31.

Consider `COC(=O)c1c2c(cc3c1CC1(Cc4cc5c(cc4C1)CCC5)C3)CCC2`, for which the GI50 in the assay on 786-0, in the assay with CCRF-CEM, in the assay on EKVX, with HOP-62, with HT-29 and with K562 was > 100 µM (inactive) each time. Further, the GI50 in the assay with M14, in the assay with MDA-MB-231, in the assay with MOLT-4, in the assay with NCI-H23, with NCI-H522 and in the assay on OVCAR-8 was > 100 µM (inactive) throughout. The GI50 with RPMI-8226, with RXF 393, with SF-295, in the assay on SK-MEL-28, in the assay on SW-620 and with UO-31 was > 100 µM (inactive) each time.

As to `Cc1ccc(S(=O)(=O)N/N=c2/sc3ccccc3n2C)cc1`, the GI50 in the assay on 786-0, in the assay with CCRF-CEM, in the assay with COLO 205, in the assay on EKVX, with HOP-62 and in the assay on HT-29 was > 100 µM (inactive) in each case. Further, the GI50 in the assay with K562 was > 100 µM (inactive); with MDA-MB-231 it was > 100 µM (inactive); in the assay on MOLT-4, > 100 µM (inactive); in the assay with NCI-H23, > 100 µM (inactive); in the assay on NCI-H522 it was 33.7 µM (inactive); with OVCAR-8, > 100 µM (inactive). Moreover, the GI50 with RPMI-8226, in the assay with RXF 393, with SF-295, in the assay on SK-MEL-28, in the assay with SN12C and in the assay on SW-620 was > 100 µM (inactive) each time. Also, the GI50 in the assay with UO-31 is > 100 µM (inactive).

As for `S=C(NCc1ccccc1)c1nc[nH]c1C(=S)NCc1ccccc1`, the GI50 in the assay with 786-0 was 5.96 µM (inactive); with CCRF-CEM, 2.96 µM (inactive); in the assay on COLO 205 it was 3.48 µM (inactive); in the assay on EKVX, 4.34 µM (inactive); with HOP-62, 10 µM (inactive); in the assay with HT-29, 6.84 µM (inactive). Besides, the GI50 in the assay with K562 was 4.4 µM (inactive); with M14, 5.55 µM (inactive); in the assay with MDA-MB-231, 10 µM (inactive); in the assay on MOLT-4, 4.85 µM (inactive); in the assay on NCI-H23 it was 6.93 µM (inactive); in the assay with NCI-H522, 3.58 µM (inactive). The GI50 is 4.49 µM (inactive) in the assay on OVCAR-8; 5.19 µM (inactive) in the assay on RPMI-8226; 11.1 µM (inactive) in the assay on RXF 393; 4.57 µM (inactive) in the assay with SF-295; 12.4 µM (inactive) with SK-MEL-28; 11.7 µM (inactive) with SN12C. Besides, the GI50 in the assay with SW-620 is 4.98 µM (inactive).

As to `O=C(COc1ccc(OCC(=O)N2C(=O)CN(c3ccccc3)C2=S)cc1)N1C(=O)CN(c2ccccc2)C1=S`, the GI50 in the assay with 786-0 was > 57 µM (inactive); in the assay on COLO 205, > 100 µM (inactive); with EKVX it was > 53.6 µM (inactive); with HOP-62, > 53.2 µM (inactive); in the assay on HT-29, > 56.9 µM (inactive); in the assay with K562, > 100 µM (inactive). Besides, the GI50 was > 57.9 µM (inactive) in the assay on M14; > 50.1 µM (inactive) in the assay on MDA-MB-231; > 25 µM (inactive) in the assay on MOLT-4; > 56.9 µM (inactive) in the assay with NCI-H23; > 61.2 µM (inactive) in the assay with NCI-H522; > 55.2 µM (inactive) with OVCAR-8. The GI50 with RPMI-8226 is > 100 µM (inactive); with RXF 393, 55.8 µM (inactive); in the assay with SF-295, > 53 µM (inactive); in the assay with SK-MEL-28, > 100 µM (inactive); in the assay with SN12C, > 59.2 µM (inactive); with SW-620 it was > 100 µM (inactive). Besides, in the assay with UO-31, the GI50 is > 56.6 µM (inactive).

On to `C=C1c2nc3ccccc3n2C=C(c2ccccc2)N1c1ccc(OC)cc1`, for which the GI50 with 786-0 was 19.5 µM (inactive); with CCRF-CEM it was 22.8 µM (inactive); in the assay on COLO 205, 25.4 µM (inactive); with EKVX it was 23.9 µM (inactive); with K562 it was 45.4 µM (inactive); with M14, 13.2 µM (inactive). Also, the GI50 in the assay with MDA-MB-231 was 40.2 µM (inactive); in the assay with MOLT-4 it was 18.9 µM (inactive); in the assay with NCI-H23, 11.4 µM (inactive); in the assay with NCI-H522, 1.63 µM (inactive); in the assay on OVCAR-8, 13.2 µM (inactive); with RPMI-8226 it was 12.4 µM (inactive). Moreover, the GI50 with RXF 393 is 11.7 µM (inactive); with SF-295, 10.7 µM (inactive); with SN12C, 65.3 µM (inactive); with SW-620, 47.5 µM (inactive); in the assay on UO-31, 4.52 µM (inactive).

`COc1ccc2c(c1)C1Oc3ccccc3CC1CO2` (configuration not stated): the GI50 in the assay on 786-0 is 47.4 µM (inactive); with CCRF-CEM, > 100 µM (inactive); in the assay on COLO 205, 53.1 µM (inactive); with EKVX, 47.2 µM (inactive); in the assay on HOP-62, > 100 µM (inactive); in the assay on HT-29 it was 42 µM (inactive). Moreover, the GI50 with K562 is 52.2 µM (inactive); in the assay on M14, 75.3 µM (inactive); in the assay on MDA-MB-231, 16.8 µM (inactive); in the assay with MOLT-4 it was 21.5 µM (inactive); in the assay on NCI-H23 it was > 100 µM (inactive); in the assay with NCI-H522, 45 µM (inactive). Also, the GI50 in the assay with OVCAR-8 was 83.9 µM (inactive); in the assay with RPMI-8226, 25.6 µM (inactive); in the assay on RXF 393, 24.9 µM (inactive); in the assay with SF-295, 76.4 µM (inactive); in the assay with SN12C it was 35.4 µM (inactive); in the assay with SW-620, 63.1 µM (inactive). Besides, the GI50 with UO-31 was 22.3 µM (inactive).
